According to ChEMBL document CHEMBL1201862, “PubChem BioAssay data set” (2004):
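Growth conditions: 96-well plates. Treatment: test compound, 48 hours, 5 concentrations. Analysis: linear interpolation between bracketing concentrations; unreached endpoints set to highest concentration. GI50 = concentration required for 50% inhibition of growth.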 The source made the active and inactive calls. Cut-off read from the data, not from the text of the source: active = GI50 up to about 1.1 µM and inactive = higher.

Columns and labels:
Assay in all cases: growth of human tumour cells (NCI), 48 h
A549 = test system: A549
ACHN = test system: ACHN
BT-549 = test system: BT-549
DU-145 = test system: DU-145
HCT-116 = test system: HCT-116
HCT-15 = test system: HCT-15
HL-60 = test system: HL-60
HOP-62 = test system: HOP-62
K562 = test system: K562
KM12 = test system: KM12
LOX IMVI = test system: LOX IMVI
MOLT-4 = test system: MOLT-4
NCI-H23 = test system: NCI-H23
NCI-H522 = test system: NCI-H522
OVCAR-3 = test system: OVCAR-3
RXF 393 = test system: RXF 393
SF-295 = test system: SF-295
SF-539 = test system: SF-539
SK-MEL-2 = test system: SK-MEL-2
SN12C = test system: SN12C

CC(C)/C(Cl)=N\OC(=O)Nc1ccc(S(N)(=O)=O)cc1
GI50 (A549): 20 µM (inactive)
GI50 (ACHN): 13.9 µM (inactive)
GI50 (BT-549): 2.75 µM (inactive)
GI50 (DU-145): 17.9 µM (inactive)
GI50 (HCT-116): 13.5 µM (inactive)
GI50 (HCT-15): 16.6 µM
GI50 (HL-60): 1.89 µM (inactive)
GI50 (HOP-62): > 42.6 µM (inactive)
GI50 (K562): 2.79 µM (inactive)
GI50 (KM12): 18.4 µM (inactive)
GI50 (LOX IMVI): 2.89 µM (inactive)
GI50 (MOLT-4): 2.32 µM (inactive)
GI50 (NCI-H23): 19.2 µM (inactive)
GI50 (NCI-H522): 1.21 µM (inactive)
GI50 (OVCAR-3): 14.3 µM (inactive)
GI50 (RXF 393): 12.6 µM (inactive)
GI50 (SF-295): 15.7 µM (inactive)
GI50 (SF-539): 16.8 µM (inactive)
GI50 (SK-MEL-2): 18.7 µM (inactive)
GI50 (SN12C): 13.9 µM (inactive)
